Source: patent US10662183B2, “Inhibitors of myocardin-related transcription factor and serum response factor (MRTF/SRF)-mediated gene transcription and methods for use of the same” (THE REGENTS OF THE UNIVERSITY OF MICHIGAN, priority 2014, dated 2020)
pIC50: −log10 of the molar value.

System: SRE.L-firefly luciferase reporter (Rho/MKL1 pathway) in PC-3 prostate cancer cells
Test: SRE.L-luciferase reporter assay
Type: cell-based
Settings: 19 h, PC-3 cells transfected with Gα12Q231L, SRE.L and pRL-TK reporters; compound 19 hrs
Protocol: Seed PC-3 prostate cancer cells (40,000 cells/well) were grown in 96-well plates in 10% FBS containing DMEM medium. Cells were transiently transfected with the Ga12QL activator of the Rho/MKL1 pathway, along with the SRE.L-firefly luciferase reporter construct for 6 hours. Additionally, cells were co-transfected with the TK-Renilla luciferase reporter as an indicator of non-specific compound effects. Various concentrations of the compounds disclosed herein were added to the 96-well plates. Plates were incubated for 19 hours at 37° C. and 5% C02 in 0.5% FBS containing DMEM medium. Cells were lysed with IX Passive Lysis Buffer (Promega). Plates were incubated for 30 minutes at room temperature. Luminescence counts were read with a Victor2 (Perkin-Elmer) plate reader.
One hour prior to cell lysis for the dual luciferase assay, 10 μl: per well of WST1 reagent (Roche) was added to the 96-well plates. Plates were incubated for 1 hour at 37° C. and 5% CO2. Cell viability was measured by WST1 absorbance at 450 nm with a Victor2 (Perkin-Elmer) plate reader.
Biological activity of the compounds disclosed herein were assessed in the SRE.L luciferase reporter assay. PC-3 prostate cancer cells were co-transfected with 2 ng of the Gα12Q231L expression plasmid along with 50 ng of the SRE.L and 7 ng of the pRL-TK luciferase reporter plasmids, as described in the Materials and Methods section. Cells were treated with 0 (vehicle, DMSO alone), 1, 3, 10, 30, and 100 μM of a compound disclosed herein for 19 hrs after transfection before lysis. Luminescence was determined as described in the Materials and Methods section. Just before cell lysis, the viability of the cells was measured using the WST-1 cell proliferation reagent as described in the Materials and Methods section. Data are expressed as percentage of inhibition (DMSO alone=0%). The experiments were performed three separate times to achieve n=3 in triplicate.

Row | Compound | pIC50
1 | CCOC(=O)NC1CC(C(=O)Nc2ccc(Cl)cc2)CN(C(=O)c2cccc(-c3ccco3)c2)C1 (stereo not drawn) [Example E-058, ethyl (5-((4-chlorophenyl)carbamoyl)-1-(3-(furan-2-yl)benzoyl)piperidin-3-yl)carbamate] | 4.82
2 | O=C(c1cccc(-c2ccco2)c1)N1CC(COc2ccc(Cl)cc2)CC(F)(F)C1 (stereo not drawn) [Example E-059, (5-((4-chlorophenoxy)methyl)-3,3-difluoropiperidin-1-yl) (3-(furan-2-yl)phenyl)methanone] | 4.51
3 | O=C(c1cccc(-c2ccco2)c1)N1CCCC(NS(=O)(=O)c2ccc(Cl)cc2)C1 (stereo not drawn) [Example E-062, 4-chloro-N-(1-(3-(furan-2-yl)benzoyl)piperidin-3-yl)benzenesulfonamide] | 4.68
4 | O=C1CC(C(=O)Nc2ccc(Cl)cc2)CN(C(=O)c2cccc(-c3ccco3)c2)C1 (stereo not drawn) [Example E-063, N-(4-chlorophenyl)-1-(3-(furan-2-yl)benzoyl)-5-oxopiperidine-3-carboxamide] | 4.82
5 | CN(C)C1CC(C(=O)Nc2ccc(Cl)cc2)CN(C(=O)c2cccc(-c3ccco3)c2)C1 (stereo not drawn) [Example E-064, N-(4-chlorophenyl)-5-(dimethylamino)-1-(3-(furan-2-yl)benzoyl)piperidine-3-carboxamide] | 5.16
6 | O=C(NC1CCCN(C(=O)c2cccc(-c3ccco3)c2)C1)c1ccc(Cl)cc1 (stereo not drawn) [Example E-065, 4-chloro-N-(1-(3-(furan-2-yl)benzoyl)piperidin-3-yl)benzamide] | 4.89
7 | O=C(c1cccc(-c2ccco2)c1)N1CCCC(COc2ccc(Cl)cc2)C1 (stereo not drawn) [Example E-066, (3-((4-chlorophenoxy)methyl)piperidin-1-yl)(3-(furan-2-yl)phenyl)methanone] | 5.64
8 | O=C(Nc1ccc(Cl)cc1)C1CN(C(=O)c2cccc(-n3cccn3)c2)CC(F)(F)C1 (stereo not drawn) [Example E-067, 1-(3-(1H-pyrazol-1-yl)benzoyl)-N-(4-chlorophenyl)-5,5-difluoropiperidine-3-carboxamide] | 5.15
9 | O=C(Nc1ccc(Cl)cc1)C1CN(C(=O)c2cccc(-c3ccncc3)c2)CC(F)(F)C1 (stereo not drawn) [Example E-068, N-(4-chlorophenyl)-5,5-difluoro-1-(3-(pyridin-4-yl)benzoyl) piperidine-3-carboxamide] | 6.11
10 | Cc1oc(-c2ccccc2)nc1C(=O)N1CCCC(C(=O)Nc2ccc(Cl)cc2)C1 (stereo not drawn) [Example E-069, N-(4-chlorophenyl)-1-(5-methyl-2-phenyloxazole-4-carbonyl)piperidine-3-carboxamide] | 5.74
11 | O=C(Nc1ccc(Cl)cc1)C1CN(C(=O)Cc2nc3ccccc3[nH]2)CC(F)(F)C1 (stereo not drawn) [Example E-070, 1-(2-(1H-benzo[d]imidazol-2-yl)acetyl)-N-(4-chlorophenyl)-5,5-difluoropiperidine-3-carboxamide] | 5.04
12 | O=C(Nc1ccc(Cl)cc1)C1CCCN(C(=O)Cc2cc3ccccc3o2)C1 (stereo not drawn) [Example E-071, 1-(2-(benzofuran-2-yl)acetyl)-N-(4-chlorophenyl)piperidine-3-carboxamide] | 4.92
13 | Cc1nc(-c2ccccc2)sc1C(=O)N1CCCC(C(=O)Nc2ccc(Cl)cc2)C1 (stereo not drawn) [Example E-072, N-(4-chlorophenyl)-1-(4-methyl-2-phenylthiazole-5-carbonyl)piperidine-3-carboxamide] | 7.08
14 | O=C(Nc1ccc(Cl)cc1)C1CCCN(C(=O)c2csc(-c3ccccc3)n2)C1 (stereo not drawn) [Example E-073, N-(4-chlorophenyl)-1-(2-phenylthiazole-4-carbonyl)piperidine-3-carboxamide] | 6.35
15 | O=C(Nc1ccc(Cl)cc1)C1CCCN(C(=O)c2ccc3scnc3c2)C1 (stereo not drawn) [Example E-074, 1-(benzo[d]thiazole-5-carbonyl)-N-(4-chlorophenyl)piperidine-3-carboxamide] | < 4.00
16 | O=C(Nc1ccc(Cl)cc1)C1CN(C(=O)c2nc3ccccc3[nH]2)CC(F)(F)C1 (stereo not drawn) [Example E-075, 1-(1H-benzo[d]imidazole-2-carbonyl)-N-(4-chlorophenyl)-5,5-difluoropiperidine-3-carboxamide] | 6.17
17 | O=C(Nc1ccc(Cl)cc1)C1CN(C(=O)c2ccc3cc[nH]c3c2)CC(F)(F)C1 (stereo not drawn) [Example E-076, N-(4-chlorophenyl)-5,5-difluoro-1-(1H-indole-6-carbonyl)piperidine-3-carboxamide] | 5.80
18 | CC(C)(C(=O)N1CCCC(C(=O)Nc2ccc(Cl)cc2)C1)c1csc(-c2ccc(F)cc2)n1 (stereo not drawn) [Example E-077, N-(4-chlorophenyl)-1-(2-(2-(4-fluorophenyl)thiazol-4-yl)-2-methylpropanoyl)piperidine-3-carboxamide] | 6.09

Row | Compound | pIC50
19 | O=C(Nc1ccc(Cl)cc1)C1CCCN(C(=O)Cc2csc(-c3ccc(F)cc3)n2)C1 (stereo not drawn) [Example E-078, N-(4-chlorophenyl)-1-(2-(2-(4-fluorophenyl)thiazol-4-yl)acetyl)piperidine-3-carboxamide] | 6.00
20 | O=C(Nc1ccc(Cl)cc1)C1CCCN(C(=O)c2cc3ccc(F)cc3[nH]2)C1 (stereo not drawn) [Example E-079, N-(4-chlorophenyl)-1-(6-fluoro-1H-indole-2-carbonyl)piperidine-3-carboxamide] | 6.04
21 | O=C(Nc1ccc(Cl)cc1)C1CCCN(C(=O)c2cc3ccccc3[nH]2)C1 (stereo not drawn) [Example E-080, N-(4-chlorophenyl)-1-(1H-indole-2-carbonyl)piperidine-3-carboxamide] | 6.51
22 | COc1ccc2[nH]c(C(=O)N3CCCC(C(=O)Nc4ccc(Cl)cc4)C3)cc2c1 (stereo not drawn) [Example E-081, N-(4-chlorophenyl)-1-(5-methoxy-1H-indole-2-carbonyl)piperidine-3-carboxamide] | 6.59
23 | O=C(Nc1ccc(Cl)cc1)C1CCCN(C(=O)c2ccc3[nH]ncc3c2)C1 (stereo not drawn) [Example E-082, N-(4-chlorophenyl)-1-(1H-indazole-5-carbonyl)piperidine-3-carboxamide] | 6.43
24 | O=C(Nc1ccc(Cl)cc1)C1CCCN(C(=O)CCc2c[nH]c3ccccc23)C1 (stereo not drawn) [Example E-083, 1-(3-(1H-indol-3-yl)propanoyl)-N-(4-chlorophenyl) piperidine-3-carboxamide] | 6.17
25 | O=C(Nc1ccc(Cl)cc1)C1CCCN(C(=O)Cc2c[nH]c3ccccc23)C1 (stereo not drawn) [Example E-084, 1-(2-(1H-indol-3-yl)acetyl)-N-(4-chlorophenyl)piperidine-3-carboxamide] | 6.41
26 | O=C(Nc1ccc(Cl)cc1)C1CCCN(C(=O)c2cccc3[nH]ncc23)C1 (stereo not drawn) [Example E-085, N-(4-chlorophenyl)-1-(1H-indazole-4-carbonyl)piperidine-3-carboxamide] | 6.51
27 | O=C(Nc1ccc(Cl)cc1)C1CCCN(C(=O)c2ccc3cc[nH]c3c2)C1 (stereo not drawn) [Example E-086, N-(4-chlorophenyl)-1-(1H-indole-6-carbonyl)piperidine-3-carboxamide] | 7.01
28 | O=C(Nc1ccc(Cl)cc1)C1CCCN(C(=O)c2ccc3[nH]ccc3c2)C1 (stereo not drawn) [Example E-087, N-(4-chlorophenyl)-1-(1H-indole-5-carbonyl)piperidine-3-carboxamide] | 6.89
29 | O=C(Nc1ccc(Cl)cc1)C1CCCN(C(=O)c2n[nH]c3ccccc23)C1 (stereo not drawn) [Example E-088, N-(4-chlorophenyl)-1-(1H-indazole-3-carbonyl)piperidine-3-carboxamide] | 5.82
30 | O=C(Nc1ccc(Cl)cc1)C1CCCN(C(=O)c2nc3ccccc3[nH]2)C1 (stereo not drawn) [Example E-089, 1-(1H-benzo[d]imidazole-2-carbonyl)-N-(4-chlorophenyl)piperidine-3-carboxamide] | 6.92
31 | O=C(Nc1ccc(Cl)cc1)C1CCCN(C(=O)c2ccccc2-n2cccn2)C1 (stereo not drawn) [Example E-090, 1-(2-(1H-pyrazol-1-yl)benzoyl)-N-(4-chlorophenyl) piperidine-3-carboxamide] | 6.62
32 | O=C(Nc1ccc(Cl)cc1)C1CCCN(C(=O)c2ccccc2-n2ccnc2)C1 (stereo not drawn) [Example E-091, 1-(2-(1H-imidazol-1-yl)benzoyl)-N-(4-chlorophenyl) piperidine-3-carboxamide] | 5.39
33 | O=C(Nc1ccc(Cl)cc1)C1CCCN(C(=O)c2ccccc2-c2ccco2)C1 (stereo not drawn) [Example E-092, N-(4-chlorophenyl)-1-(2-(furan-2-yl)benzoyl)piperidine-3-carboxamide] | 6.15
34 | O=C(Nc1ccc(Cl)cc1)C1CCCN(C(=O)c2ccc3cn[nH]c3c2)C1 (stereo not drawn) [Example E-093, N-(4-chlorophenyl)-1-(1H-indazole-6-carbonyl)piperidine-3-carboxamide] | 6.31
35 | O=C(Nc1ccc(Cl)cc1)C1CCCN(C(=O)c2ccc3occc3c2)C1 (stereo not drawn) [Example E-094, 1-(benzofuran-5-carbonyl)-N-(4-chlorophenyl)piperidine-3-carboxamide] | 6.34
36 | CS(=O)(=O)c1ccc(NC(=O)C2CCCN(C(=O)c3cccc(-c4ccco4)c3)C2)cc1 (stereo not drawn) [Example E-095, 1-(3-(furan-2-yl)benzoyl)-N-(4-(methylsulfonyl)phenyl) piperidine-3-carboxamide] | 5.26
